The target in the assay is human μ-opiate receptor (Homo sapiens, UniProt P35372). As to the kind of experiment: Affinity for the human μ-opiate receptor ([3H]-naloxone displacement, SPA, CHO-K1 membrane preparation). To be noted: for inhibition at 1 µM: read-out: μ-Opioid receptor, % inhibition [1 μM]; for pKi: read-out: μ-Opioid receptor, Ki. The class given is binding.

pKi: −log10 of the molar value.

Chain of human μ-opiate receptor (P35372 whole entry): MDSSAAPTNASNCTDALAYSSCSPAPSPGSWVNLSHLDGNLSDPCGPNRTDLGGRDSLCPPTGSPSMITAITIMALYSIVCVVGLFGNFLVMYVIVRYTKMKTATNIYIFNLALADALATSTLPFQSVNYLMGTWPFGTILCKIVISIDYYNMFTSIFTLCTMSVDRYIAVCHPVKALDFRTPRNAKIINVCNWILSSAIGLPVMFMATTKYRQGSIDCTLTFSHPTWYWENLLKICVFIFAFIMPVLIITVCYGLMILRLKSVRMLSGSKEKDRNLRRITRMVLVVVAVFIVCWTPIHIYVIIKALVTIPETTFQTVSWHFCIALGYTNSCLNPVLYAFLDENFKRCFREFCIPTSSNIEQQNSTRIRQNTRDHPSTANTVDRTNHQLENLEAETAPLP

A word on the inhibition: it is the change of the read-out against control, counted positive when it falls. Regarding `CN(C)C(c1cccc(F)c1)C1CCC(NC(=O)c2ccc3nsnc3c2)CC1` (stereo not drawn) [compound 290, benzo[1,2,5]thiadiazole-5-carboxylic acid {4-[dimethylamino-(3-fluoro-phenyl)-methyl]-cyclohexyl}-amide], the inhibition at 1 µM was found to be 70%.

Take `CN(C)C(c1cccs1)C1CCC(CNC(=O)Cc2cccs2)CC1` (stereo not drawn) [compound 291, N-[4-(dimethylamino-thiophen-2-yl-methyl)-cyclohexylmethyl]-2-thiophen-2-yl-acetamide]: the inhibition at 1 µM stood at 102%.

The pKi is −log10 of the Ki, conventionally taken in molar units. `CN(C)C(c1ccccc1)C1CCC(CNC(=O)c2csc3ccccc23)CC1` (stereo not drawn) [compound 292, benzo[b]thiophene-3-carboxylic acid [4-(dimethylamino-phenyl-methyl)-cyclohexylmethyl]-amide]: the inhibition at 1 µM turned out to be 102% and the pKi is 8.89.

Consider `COc1c(C(=O)NCC2CCC(C(c3ccccc3)N(C)C)CC2)csc1Cl` (stereo not drawn) [compound 293, 5-chloro-4-methoxy-thiophene-3-carboxylic acid [4-(dimethylamino-phenyl-methyl)-cyclohexylmethyl]-amide], for which the inhibition at 1 µM was 102% and the pKi is 8.34.

Consider `CN(C)C(c1cccc(F)c1)C1CCC(CNC(=O)CC(C)(C)C)CC1` (stereo not drawn) [compound 295, N-{4-[dimethylamino-(3-fluoro-phenyl)-methyl]-cyclohexylmethyl}-3,3-dimethyl-butyramide], for which the inhibition at 1 µM was determined as 101% and the negative logarithm of the Ki (pKi) is 8.14.

In the case of `CN(C)C(c1cccs1)C1CCC(CNC(=O)c2ccccc2Br)CC1` (stereo not drawn) [compound 296, 2-bromo-N-[4-(dimethylamino-thiophen-2-yl-methyl)-cyclohexylmethyl]-benzamide], the inhibition at 1 µM was 100% and the pKi is 9.52.

`CN(C)C(c1cccs1)C1CCC(CNC(=O)C(c2ccccc2)c2ccccc2)CC1` (stereo not drawn) [compound 297, N-[4-(dimethylamino-thiophen-2-yl-methyl)-cyclohexylmethyl]-2,2-diphenyl-acetamide]: the inhibition at 1 µM stood at 100% and the pKi was 8.40.

For `CN(C)C(c1ccccc1)C1CCC(CNC(=O)CC(C)(C)C)CC1` (stereo not drawn) [compound 298, N-[4-(dimethylamino-phenyl-methyl)-cyclohexylmethyl]-3,3-dimethyl-butyramide], the inhibition at 1 µM came out at 100% and the pKi is 8.40.

Regarding `CSc1ncccc1C(=O)NCC1CCC(C(c2ccccc2)N(C)C)CC1` (stereo not drawn) [compound 299, N-[4-(dimethylamino-phenyl-methyl)-cyclohexylmethyl]-2-methylsulfanyl-nicotinamide], the inhibition at 1 µM was 100% and the pKi was 9.00.

For the compound `COc1cccc(OC)c1C(=O)NCC1CCC(C(c2cccs2)N(C)C)CC1` (stereo not drawn) [compound 300, N-[4-(dimethylamino-thiophen-2-yl-methyl)-cyclohexylmethyl]-2,6-dimethoxy-benzamide], the inhibition at 1 µM amounted to 99% and the pKi was 8.85.

Regarding `CN(C)C(c1cccs1)C1CCC(CNC(=O)CC(C)(C)C)CC1` (stereo not drawn) [compound 301, N-[4-(dimethylamino-thiophen-2-yl-methyl)-cyclohexylmethyl]-3,3-dimethyl-butyramide], the inhibition at 1 µM stood at 99% and the pKi is 8.57.

Turning to `CN(C)C(c1cccs1)C1CCC(CNC(=O)c2csc3ccccc23)CC1` (stereo not drawn) [compound 302, benzo[b]thiophene-3-carboxylic acid [4-(dimethylamino-thiophen-2-yl-methyl)-cyclohexylmethyl]-amide], the inhibition at 1 µM is 99% and the negative logarithm of the Ki (pKi) is 8.80.

`COc1c(C(=O)NCC2CCC(C(c3cccc(F)c3)N(C)C)CC2)csc1Cl` (stereo not drawn) [compound 303, 5-chloro-4-methoxy-thiophene-3-carboxylic acid {4-[dimethylamino-(3-fluoro-phenyl)-methyl]-cyclohexylmethyl}-amide]: the inhibition at 1 µM is 99% and the pKi was 7.72.

For the compound `CC(Oc1ccccc1)C(=O)NCC1CCC(C(c2cccs2)N(C)C)CC1` (stereo not drawn) [compound 304, N-[4-(dimethylamino-thiophen-2-yl-methyl)-cyclohexylmethyl]-2-phenoxy-propionamide], the inhibition at 1 µM is 99% and the pKi was 7.82.

On to `COc1ccccc1C(=O)NCC1CCC(C(c2cccs2)N(C)C)CC1` (stereo not drawn) [compound 305, N-[4-(dimethylamino-thiophen-2-yl-methyl)-cyclohexylmethyl]-2-methoxy-benzamide], for which the inhibition at 1 µM is 98% and the pKi was 7.92.

Regarding `CN(C)C(c1ccccc1)C1CCC(CNC(=O)Cc2ccccc2)CC1` (stereo not drawn) [compound 306, N-[4-(dimethylamino-phenyl-methyl)-cyclohexylmethyl]-2-phenyl-acetamide], the inhibition at 1 µM is 98% and the pKi was 8.00.

Take `CN(C)C(c1cccs1)C1CCC(CNC(=O)c2cccc(Br)c2)CC1` (stereo not drawn) [compound 307, 3-bromo-N-[4-(dimethylamino-thiophen-2-yl-methyl)-cyclohexylmethyl]-benzamide]: the inhibition at 1 µM is 98% and the pKi is 8.21.

Turning to `CN(C)C(c1cccs1)C1CCC(CNC(=O)c2cc(F)cc(C(F)(F)F)c2)CC1` (stereo not drawn) [compound 308, N-[4-(dimethylamino-thiophen-2-yl-methyl)-cyclohexylmethyl]-3-fluoro-5-trifluoromethyl-benzamide], the inhibition at 1 µM worked out at 98% and the pKi was 8.13.

In the case of `CN(C)C(c1ccc(Cl)cc1)C1CCC(CNC(=O)CC(C)(C)C)CC1` (stereo not drawn) [compound 309, N-{4-[(4-chloro-phenyl)-dimethylamino-methyl]-cyclohexylmethyl}-3,3-dimethyl-butyramide], the inhibition at 1 µM stood at 98% and the pKi is 8.25.

On to `CCSc1ncccc1C(=O)NCC1CCC(C(c2ccccc2)N(C)C)CC1` (stereo not drawn) [compound 310, N-[4-(dimethylamino-phenyl-methyl)-cyclohexylmethyl]-2-ethylsulfanyl-nicotinamide], for which the inhibition at 1 µM is 98% and the pKi was 7.80.

Consider `CN(C)C(c1cccs1)C1CCC(CNC(=O)Cc2ccc(Cl)cc2)CC1` (stereo not drawn) [compound 311, 2-(4-chloro-phenyl)-N-[4-(dimethylamino-thiophen-2-yl-methyl)-cyclohexyl-methyl]-acetamide], for which the inhibition at 1 µM came out at 98% and the pKi is 7.96.

Take `CN(C)C(c1ccc(Cl)cc1)C1CCC(CNC(=O)C(c2ccccc2)c2ccccc2)CC1` (stereo not drawn) [compound 312, N-{4-[(4-chloro-phenyl)-dimethylamino-methyl]-cyclohexylmethyl}-2,2-diphenyl-acetamide]: the inhibition at 1 µM was found to be 97% and the pKi was 7.28.

Consider `CN(C)C(c1cccs1)C1CCC(CNC(=O)c2c(F)cccc2F)CC1` (stereo not drawn) [compound 313, N-[4-(dimethylamino-thiophen-2-yl-methyl)-cyclohexylmethyl]-2,6-difluoro-benzamide], for which the inhibition at 1 µM is 97% and the pKi was 7.46.

As for `CN(C)C(c1cccc(F)c1)C1CCC(CNC(=O)c2csc3ccccc23)CC1` (stereo not drawn) [compound 314, benzo[b]thiophene-3-carboxylic acid {4-[dimethylamino-(3-fluoro-phenyl)-methyl]-cyclohexylmethyl}-amide], the inhibition at 1 µM was 97% and the pKi is 8.38.

Regarding `CSc1ncccc1C(=O)NCC1CCC(C(c2ccc(Cl)cc2)N(C)C)CC1` (stereo not drawn) [compound 315, N-{4-[(4-chloro-phenyl)-dimethylamino-methyl]-cyclohexylmethyl}-2-methyl-sulfanyl-nicotinamide], the “μ-Opioid receptor, % inhibition [1 μM]” value is reported as 97% and the pKi is 6.80.

As for `CN(C)C(c1ccc(Cl)cc1)C1CCC(CNC(=O)Cc2cccs2)CC1` (stereo not drawn) [compound 316, N-{4-[(4-chloro-phenyl)-dimethylamino-methyl]-cyclohexylmethyl}-2-thiophen-2-yl-acetamide], the inhibition at 1 µM is 96%.

With `CN(C)C(c1ccccc1)C1CCC(CNC(=O)C2(c3ccc(Cl)cc3)CCCC2)CC1` (stereo not drawn) [compound 318, 1-(4-chloro-phenyl)-cyclopentane-carboxylic acid [4-(dimethylamino-phenyl-methyl)-cyclohexylmethyl]-amide], the inhibition at 1 µM worked out at 95% and the pKi is 7.64.

Turning to `COc1cccc(CC(=O)NCC2CCC(C(c3ccc(Cl)cc3)N(C)C)CC2)c1` (stereo not drawn) [compound 320, N-{4-[(4-chloro-phenyl)-dimethylamino-methyl]-cyclohexylmethyl}-2-(3-methoxy-phenyl)-acetamide], the inhibition at 1 µM worked out at 95% and the pKi was 7.55.

As for `CCC(C(=O)NCC1CCC(C(c2ccccc2)N(C)C)CC1)c1ccccc1` (stereo not drawn) [compound 321, N-[4-(dimethylamino-phenyl-methyl)-cyclohexylmethyl]-2-phenyl-butyramide], the inhibition at 1 µM is 95% and the pKi is 7.66.

Turning to `CN(C)C(c1ccc(F)cc1)C1CCC(CNC(=O)CC(C)(C)C)CC1` (stereo not drawn) [compound 322, N-{4-[dimethylamino-(4-fluoro-phenyl)-methyl]-cyclohexylmethyl}-3,3-dimethyl-butyramide], the inhibition at 1 µM turned out to be 95% and the pKi is 7.51.

`CC(Oc1ccccc1)C(=O)NCC1CCC(C(c2ccccc2)N(C)C)CC1` (stereo not drawn) [compound 323, N-[4-(dimethylamino-phenyl-methyl)-cyclohexylmethyl]-2-phenoxy-propionamide]: the inhibition at 1 µM came to 95% and the pKi was 7.82.

`CN(C)C(c1ccccc1)C1CCC(CNC(=O)Cc2ccc(Cl)cc2)CC1` (stereo not drawn) [compound 324, 2-(4-chloro-phenyl)-N-[4-(dimethylamino-phenyl-methyl)-cyclohexylmethyl]-acetamide]: the inhibition at 1 µM came to 95% and the pKi is 7.66.

For the compound `CN(C)C(c1cccc(F)c1)C1CCC(CNC(=O)C2(c3ccc(Cl)cc3)CCCC2)CC1` (stereo not drawn) [compound 327, 1-(4-chloro-phenyl)-cyclopentane-carboxylic acid {4-[dimethylamino-(3-fluoro-phenyl)-methyl]-cyclohexylmethyl}-amide], the inhibition at 1 µM stood at 94% and the pKi is 7.20.

The record behind these values is patent US8058475B2, “Substituted cyclohexylmethyl compounds” (Gruenenthal GmbH, priority 2005, dated 2011).
